≈ marks a conversion by molar mass, not a printed value. Read-outs that look alike come from different tables or passages of the source.
Experiments:
Experiment in all cases: In vitro MIC, broth dilution
Format in all cases: cell-based
E. coli GC 4559 = details: E. coli GC 4559
E. coli GC 4560 = details: E. coli GC 4560
E. coli GC 3226 = details: E. coli GC 3226
S. marcescens GC 4077 = details: S. marcescens GC 4077
C. albicans GC 3066 = details: C. albicans GC 3066
M. morganii GC 4531 = details: M. morganii GC 4531
K. pneumoniae GC 4534 = details: K. pneumoniae GC 4534
E. cloacae GC 3783 = details: E. cloacae GC 3783
P. aeruginosa GC 4532 = details: P. aeruginosa GC 4532
CNS GC 4537 = test system: CNS GC 4537
In short: (§1)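 Serial antibiotic dilutions (64-0.06 μg/ml) in Mueller-Hinton II were challenged with 5×10^5 CFU/ml bacteria. After an 18 hour ambient-air incubation at 35° C, the lowest concentration inhibiting growth was recorded as MIC, following NCCLS recommendations.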

CNS GC 4538 = test system: CNS GC 4538
In short: as §1

CNS GC 4547 = test system: CNS GC 4547
In short: as §1

E. faecalis GC 2242 = details: E. faecalis GC 2242
In short: as §1

E. faecalis GC 4555 = details: E. faecalis GC 4555
In short: as §1

E. faecalis GC 842 = details: E. faecalis GC 842
In short: as §1

S. aureus GC 1131 = details: S. aureus GC 1131
In short: as §1

S. aureus GC 2216 = details: S. aureus GC 2216
In short: as §1

S. aureus GC 4536 = details: S. aureus GC 4536
In short: as §1

E. coli GC 2203 = details: E. coli GC 2203
P. aeruginosa GC 2214 = details: P. aeruginosa GC 2214
[1] = Escherichia coli, GC4559, read-out: MIC
[2] = Escherichia coli, GC4560, read-out: MIC
[3] = Escherichia coli, GC3226, read-out: MIC
[4] = Serratia marcescens, GC4077, read-out: MIC
[5] = Candida albicans, GC3066, read-out: MIC
[6] = Morganella morganii, GC4531, read-out: MIC
[7] = Klebsiella pneumoniae, GC4534, read-out: MIC
[8] = Enterobacter cloacae, GC3783, read-out: MIC
[9] = Pseudomonas aeruginosa, GC4532, read-out: MIC
[10] = Enterococcus faecalis, GC2242, read-out: MIC
[11] = Enterococcus faecalis, GC4555, read-out: MIC
[12] = Enterococcus faecalis, GC842, read-out: MIC
[13] = Staphylococcus aureus, GC1131, read-out: MIC
[14] = Staphylococcus aureus, GC2216, read-out: MIC
[15] = Staphylococcus aureus, GC4536, read-out: MIC
[16] = Escherichia coli, GC2203, read-out: MIC
[17] = Pseudomonas aeruginosa, GC2214, read-out: MIC

| Structure (SMILES) | MIC (E. coli GC 4559; [1]) [µg/mL] | MIC (E. coli GC 4560; [2]) [µg/mL] | MIC (E. coli GC 3226; [3]) [µg/mL] | MIC (S. marcescens GC 4077; [4]) [µg/mL] | MIC (C. albicans GC 3066; [5]) [µg/mL] | MIC (M. morganii GC 4531; [6]) [µg/mL] | MIC (K. pneumoniae GC 4534; [7]) [µg/mL] | MIC (E. cloacae GC 3783; [8]) [µg/mL] | MIC (P. aeruginosa GC 4532; [9]) [µg/mL] | MIC (CNS GC 4537; CNS GC 4537, read-out: MIC) [µg/mL] | MIC (CNS GC 4538; CNS GC 4538, read-out: MIC) [µg/mL] | MIC (CNS GC 4547; CNS GC 4547, read-out: MIC) [µg/mL] | MIC (E. faecalis GC 2242; [10]) [µg/mL] | MIC (E. faecalis GC 4555; [11]) [µg/mL] | MIC (E. faecalis GC 842; [12]) [µg/mL] | MIC (S. aureus GC 1131; [13]) [µg/mL] | MIC (S. aureus GC 2216; [14]) [µg/mL] | MIC (S. aureus GC 4536; [15]) [µg/mL] | MIC (E. coli GC 2203; [16]) [µg/mL] | MIC (P. aeruginosa GC 2214; [17]) [µg/mL] | other results |
| --- | --- | --- | --- | --- | --- | --- | --- | --- | --- | --- | --- | --- | --- | --- | --- | --- | --- | --- | --- | --- | --- |
| CCOC(=O)C(NCCCNC(=O)[C@@H](N)CC(C)C)[C@@H](OC(C)=O)[C@H]1O[C@H](n2ccc(=O)[nH]c2=O)[C@H](OC(C)=O)[C@@H]1OC(C)=O (stereo partly drawn) [Example 39, Ethyl (3R)-3-(acetyloxy)-2-[(3-{[(2S)-2-amino-4-methylpentanoyl]amino}propyl)amino]-3-[(2R,3R,4R,5S)-3,4-bis(acetyloxy)-5-(2,4-dioxo-3,4-dihydro-1(2H)-pyrimidinyl)tetrahydro-2-furanyl]propanoate] | > 128 | > 128 | > 128 | 128 (≈ 199 µM) | 128 (≈ 199 µM) | 128 (≈ 199 µM) | > 128 | > 128 | 128 (≈ 199 µM) | > 128 | > 128 | > 128 | 128 (≈ 199 µM) | > 128 | > 128 | > 128 | > 128 | > 128 | > 128 | 128 (≈ 199 µM) | – |
| CCOC(=O)C(NCCCNC(=O)[C@H](CC(C)C)NC(=O)[C@H](CCCNC(=N)N[N+](=O)O)NC(=O)N[C@H](C(=O)OCc1ccccc1)C(C)C)C(OC(C)=O)[C@H]1O[C@H](n2ccc(=O)[nH]c2=O)[C@H](OC(C)=O)[C@@H]1OC(C)=O (stereo partly drawn) [Example 41, 19-Benzyl 5-ethyl (4R,12S,15S,19S)-4-[(2R,3R,4R,5S)-3,4-bis(acetyloxy)-5-(2,4-dioxo-3,4-dihydro-1(2H)-pyrimidinyl)tetrahydro-2-furanyl]-15-(3-{[(2,2-dioxido-2lambda˜1˜-diazanyl)(imino)methyl]amino}propyl)-12-isobutyl-20-methyl-2,11,14,17-tetraoxo-3-oxa-6,10,13,16,18-pentaazahenicosane-5,19-dicarboxylate] | > 128 | > 128 | > 128 | > 128 | 128 | > 128 | > 128 | > 128 | 128 | – | – | – | 128 | > 128 | > 128 | > 128 | > 128 | > 128 | > 128 | 128 | MIC (CNS GC 4537): > 128 µg/mL; MIC (CNS GC 4538): > 128 µg/mL; MIC (CNS GC 4547): > 128 µg/mL |
| CCOC(=O)C(NCCCNC(=O)[C@H](CC(C)C)NC(=O)[C@H](CCCNC(=N)N[N+](=O)[O-])NC(=O)N[C@H](C(=O)OCc1ccccc1)C(C)C)[C@@H](OC(C)=O)[C@H]1O[C@@H](n2ccc(=O)[nH]c2=O)[C@H](OC(C)=O)[C@@H]1OC(C)=O (stereo partly drawn) [Example 42, 1-Benzyl 17-ethyl (2S,6S,9S)-16-{(R)-(acetyloxy)[(2R,3R,4R,5R)-3,4-bis(acetyloxy)-5-(2,4-dioxo-3,4-dihydro-1(2H)-pyrimidinyl)tetrahydro-2-furanyl]methyl}-6-(3-{[(2,2-dioxido-2lambda˜1˜-diazanyl)(imino)methyl]amino}propyl)-9-isobutyl-2-isopropyl-4,7,10-trioxo-3,5,8,11,15-pentaazaheptadecane-1,17-dioate] | – | – | – | – | – | – | – | – | – | – | – | – | – | – | – | – | – | – | – | – | MIC (E. coli GC 4559): >128 µg/mL; MIC (E. coli GC 4560): 128 µg/mL (≈ 119 µM); MIC (E. coli GC 3226): 128 µg/mL (≈ 119 µM); MIC (S. marcescens GC 4077): 128 µg/mL (≈ 119 µM); MIC (C. albicans GC 3066): 128 µg/mL (≈ 119 µM); MIC (M. morganii GC 4531): 128 µg/mL (≈ 119 µM); MIC (K. pneumoniae GC 4534): 128 µg/mL (≈ 119 µM); MIC (E. cloacae GC 3783): 128 µg/mL (≈ 119 µM); MIC (P. aeruginosa GC 4532): 128 µg/mL (≈ 119 µM); MIC (CNS GC 4537; CNS GC 4537): >128 µg/mL; MIC (CNS GC 4538; CNS GC 4538): >128 µg/mL; MIC (CNS GC 4547; CNS GC 4547): 128 µg/mL (≈ 119 µM); MIC (E. faecalis GC 2242): 64 µg/mL (≈ 59.5 µM); MIC (E. faecalis GC 4555): 128 µg/mL (≈ 119 µM); MIC (E. faecalis GC 842): 128 µg/mL (≈ 119 µM); MIC (S. aureus GC 1131): >128 µg/mL; MIC (S. aureus GC 2216): >128 µg/mL; MIC (S. aureus GC 4536): >128 µg/mL; MIC (E. coli GC 2203): >128 µg/mL; MIC (P. aeruginosa GC 2214): 128 µg/mL (≈ 119 µM) |

The next lines start with results.

| MIC (E. coli GC 4559; [1]) [µg/mL] | MIC (E. coli GC 4560; [2]) [µg/mL] | MIC (E. coli GC 3226; [3]) [µg/mL] | MIC (S. marcescens GC 4077; [4]) [µg/mL] | MIC (C. albicans GC 3066; [5]) [µg/mL] | MIC (M. morganii GC 4531; [6]) [µg/mL] | MIC (K. pneumoniae GC 4534; [7]) [µg/mL] | MIC (E. cloacae GC 3783; [8]) [µg/mL] | MIC (P. aeruginosa GC 4532; [9]) [µg/mL] | MIC (CNS GC 4537; CNS GC 4537, read-out: MIC) [µg/mL] | MIC (CNS GC 4538; CNS GC 4538, read-out: MIC) [µg/mL] | MIC (CNS GC 4547; CNS GC 4547, read-out: MIC) [µg/mL] | MIC (E. faecalis GC 2242; [10]) [µg/mL] | MIC (E. faecalis GC 4555; [11]) [µg/mL] | MIC (E. faecalis GC 842; [12]) [µg/mL] | MIC (S. aureus GC 1131; [13]) [µg/mL] | MIC (S. aureus GC 2216; [14]) [µg/mL] | MIC (S. aureus GC 4536; [15]) [µg/mL] | MIC (E. coli GC 2203; [16]) [µg/mL] | MIC (P. aeruginosa GC 2214; [17]) [µg/mL] | Structure (SMILES) | other results |
| --- | --- | --- | --- | --- | --- | --- | --- | --- | --- | --- | --- | --- | --- | --- | --- | --- | --- | --- | --- | --- | --- |
| > 128 | > 128 | > 128 | > 128 | > 128 | > 128 | > 128 | > 128 | 128 (≈ 199 µM) | > 128 | > 128 | > 128 | 128 (≈ 199 µM) | > 128 | > 128 | > 128 | > 128 | > 128 | > 128 | 128 (≈ 199 µM) | CCOC(=O)C(NCCCNC(=O)[C@@H](N)CC(C)C)[C@@H](OC(C)=O)[C@H]1O[C@@H](n2ccc(=O)[nH]c2=O)[C@H](OC(C)=O)[C@@H]1OC(C)=O (stereo partly drawn) [Example 40, Ethyl (3R)-3-(acetyloxy)-2-[(3-{[(2S)-2-amino-4-methylpentanoyl]amino}propyl)amino]-3-[(2R,3R,4R,5R)-3,4-bis(acetyloxy)-5-(2,4-dioxo-3,4-dihydro-1(2H)-pyrimidinyl)tetrahydro-2-furanyl]propanoate] | – |
| > 128 | > 128 | > 128 | > 128 | 128 (≈ 140 µM) | > 128 | > 128 | > 128 | 128 (≈ 140 µM) | > 128 | > 128 | > 128 | > 128 | > 128 | > 128 | > 128 | > 128 | > 128 | > 128 | 128 (≈ 140 µM) | CCOC(=O)C(NCCCNC(=O)[C@@H](NC(=O)[C@H](CCCNC(=N)N)NC(=O)N[C@H](C(=O)O)C(C)C)[C@@H](O)C(C)C)[C@@H](O)[C@H]1O[C@@H](n2ccc(=O)[nH]c2=O)[C@H](OC(C)=O)[C@@H]1OC(C)=O (stereo partly drawn) [Example 43, (2S,6S,9S)-6-(3-{[Amino(imino)methyl]amino}propyl)-16-[(R)-[(2R,3R,4R,5R)-3,4-bis(acetyloxy)-5-(2,4-dioxo-3,4-dihydro-1(2H)-pyrimidinyl)tetrahydro-2-furanyl](hydroxy)methyl]-9-[(1S)-1-hydroxy-2-methylpropyl]-2-isopropyl-4,7,10,17-tetraoxo-18-oxa-3,5,8,11,15-pentaazaicosan-1-oic acid] | – |
| > 128 | 128 (≈ 163 µM) | > 128 | 128 (≈ 163 µM) | 128 (≈ 163 µM) | 128 (≈ 163 µM) | > 128 | > 128 | 128 (≈ 163 µM) | > 128 | > 128 | > 128 | 64 (≈ 81.4 µM) | 128 (≈ 163 µM) | 128 (≈ 163 µM) | > 128 | > 128 | > 128 | > 128 | 128 (≈ 163 µM) | COc1ccc(Cn2c(=O)ccn([C@@H]3OC([C@H](O)[C@H](NCCCNC(=O)[C@@H](NC(=O)OCc4ccccc4)[C@H](C)O)C(=O)OC(C)(C)C)[C@@H](O)[C@H]3O)c2=O)cc1 (stereo partly drawn) [Example 44, tert-Butyl (5S,12S)-12-[(R)-[(3S,4R,5R)-3,4-dihydroxy-5-(3-(4-methoxybenzyl)-2,4-dioxo-3,4-dihydro-1(2H)-pyrimidinyl)tetrahydro-2-furanyl](hydroxy)methyl]-5-[(1S)-1-hydroxyethyl]-3,6-dioxo-1-phenyl-2-oxa-4,7,11-triazatridecan-13-oate] | – |
